{"source": "paper PMC5445010", "about": "(Chembiochem : a European journal of chemical biology, 2017)", "key": {"IspG": {"system": "IspG", "settings": "cited from earlier work"}, "IspH [1]": {"system": "IspH", "settings": "cited from earlier work"}, "IspH [2]": {"biological_target": "IspH", "type": "biochemical"}}, "note": "Where two headings read alike, the source gives them in different places."}
{"smiles": "C#CCOP(=O)(O)OP(=O)(O)O", "note": "[Compound 5, propargyl diphosphate]", "values": [{"measurement": "IspG inhibition (in words)", "setting": "IspG", "value": "low μM inhibitors"}, {"measurement": "IspH inhibition (in words)", "setting": "IspH [1]", "value": "low μM inhibitors"}]}
{"smiles": "Nc1ccc2c(c1)CC1(C(=O)NC(=O)NC1=O)C1CN(Cc3ccccc3)CCN21", "note": "(stereo not shown) [Compound 9, 8-amino-3-benzyl-2,3,4,4a-tetrahydro-1H,2′H,6H-spiro[pyrazino[1,2-a]quinoline-5,5′-pyrimidine]-2′,4′,6′ (1′H,3′H)-trione]", "values": [{"measurement": "Ki", "setting": "IspH [2]; read-out: Ki of barbiturate analogs, IspH (summary over enzymes)", "value": "0.5 to 3", "unit": "µM"}]}
{"smiles": "C#CCO", "note": "[propargyl alcohol]", "values": [{"measurement": "Ki", "setting": "IspH [2]; read-out: IspH inhibition Ki", "value": "> 10000", "unit": "µM"}]}
